Results as given in patent publication US7060678B2, “Peptides comprising furanoid sugar amino acids for the treatment of cancer” (Dabur Research Foundation, priority 2003, dated 2006).
Like-named read-outs stand apart in the source and are kept apart here. Starred links: 1 amine or outer side, 2 acyl side, 3 side chain; linkers in the order of their positions; H or OH if unused. Non-standard residues stand in square brackets, D forms with d. Residues, ends and D or L forms follow the SMILES beside them. 2Furoyl(5-aminomethyl) = O=C(c1ccc(CN[*:1])o1)[*:2]; X2 = O=C([C@@H]1CC[C@H](CN[*:1])O1)[*:2]; X1 = O=C(C1CCC(CN[*:1])O1)[*:2]

Assays:
KB (oral) = experiment: MTT cytotoxicity assay, KB cells; format: cell-based, human; settings: human, 48 hours
Text: (§1) The following cell lines were used.

HeP-2 (larynx) = experiment: MTT cytotoxicity assay, HeP-2 cells; format: cell-based, human; settings: human, 48 hours
Text: as §1

HeP-G2 (liver) = experiment: MTT cytotoxicity assay, HeP-G2 cells; format: cell-based, human; settings: human, 48 hours
Text: as §1

[1] = system: MiaPaCa.2 (human pancreas); experiment: MTT cytotoxicity assay, MiaPaCa.2 cells; format: cell-based; settings: 48 hours
Text: as §1

PA1 (human ovary) = experiment: MTT cytotoxicity assay, PA1 cells; format: cell-based; settings: 48 hours
Text: as §1

ECV-304 (endothelial) = settings: ECV-304 cells, 48 hours, NA = Not Active
Text: Although sterile phosphate buffered saline was used to prepare each stock solution for the testing described in the following example, other diluents may be used such as buffered saline, isotonic NaCl, Ringer's solution, water, distilled water, polyethylene glycol (neat or in water), Tween in water, dimethylsulfoxide up to 50% in water, propylene glycol (neat or in water), phosphate buffered saline, balanced salt solution, glycerol, and other conventional fluids that are suitable for parentral administration. To obtain a pH in the range of approximately 3.5 to 7.0, for each stock solution, the pH can be adjusted by using 1N HCl for lowering the pH or 1N NaOH for raising the pH, although other buffers such as citrate buffer, phosphate buffer and the like or other conventional agents for adjusting the pH can be used.
The MTT assay is based on the principle of uptake of MTT [3-[4,5-dimethylthiazol-2-yl]-2,5-diphenyl tetrazolium bromide], a tetrazolium salt, by the metabolically active cells where it is metabolized by active mitochondria into a blue colored formazan product which can be read spectrophotometrically. […] The formazan crystals formed inside the cells were dissolved with a detergent comprising of 10% Sodium dodecyl sulfate and 0.01 N HCl and optical density read on a multi-scan ELISA reader. The optical density was directly proportional to the number of proliferating and metabolically active cells. The following cell lines were used. PA1(human ovary), PTC (colon), HeP-2 (larynx), MiaPaCa.2 (human pancreas), KB (oral), ECV-304 (endothelial) and HeP-G2 (liver).

PTC (colon) = experiment: MTT cytotoxicity assay, PTC cells; format: cell-based, human; settings: human, 48 hours
Text: as §1

| SMILES | Percent Cytotoxicity (KB (oral); 1 nM) [%] | Percent Cytotoxicity (KB (oral); 10 nM) [%] | Percent Cytotoxicity (KB (oral); 100 nM) [%] | Percent Cytotoxicity (KB (oral); 1 μM) [%] | Percent Cytotoxicity (HeP-2 (larynx); 1 nM) [%] | Percent Cytotoxicity (HeP-2 (larynx); 10 nM) [%] | Percent Cytotoxicity (HeP-2 (larynx); 100 nM) [%] | Percent Cytotoxicity (HeP-2 (larynx); 1 μM) [%] | Percent Cytotoxicity ([1]; human, 1 nM) [%] | Percent Cytotoxicity ([1]; human, 10 nM) [%] | Percent Cytotoxicity ([1]; human, 100 nM) [%] | Percent Cytotoxicity (PA1 (human ovary); human, 1 nM) [%] | Percent Cytotoxicity (PA1 (human ovary); human, 10 nM) [%] | Percent Cytotoxicity (PA1 (human ovary); human, 100 nM) [%] | Percent Cytotoxicity (PA1 (human ovary); human, 1 μM) [%] | Percent Cytotoxicity (ECV-304 (endothelial); peptide 1 nM) [%] | Percent Cytotoxicity (ECV-304 (endothelial); peptide 10 nM) [%] | Percent Cytotoxicity (ECV-304 (endothelial); peptide 100 nM) [%] | Percent Cytotoxicity (PTC (colon); 1 nM) [%] | Percent Cytotoxicity (PTC (colon); 10 nM) [%] | further results |
| --- | --- | --- | --- | --- | --- | --- | --- | --- | --- | --- | --- | --- | --- | --- | --- | --- | --- | --- | --- | --- | --- |
| CSCC[C@H](NC(=O)[C@@H](N)CC(C)C)C(=O)N[C@@H](Cc1ccc(O)cc1)C(=O)NC[C@H]1O[C@H](C(=O)N[C@H](C(=O)N[C@@H](Cc2ccc(O)cc2)C(=O)N[C@@H](CC(C)C)C(=O)N[C@@H](CCCCN)C(=O)O)[C@@H](C)O)[C@@H](OCc2ccccc2)[C@@H]1OCc1ccccc1 [SEQ ID NO: 3, Leu-Met-Tyr-Saa2-Thr-Tyr-Leu-Lys] | 12.9 ± 1.3 | 17.7 ± 0.5 | 14.9 ± 1.1 | 9.5 ± 0.1 | 12.6 ± 2.8 | 15.4 ± 1.3 | 13.9 ± 0.5 | 10.8 ± 0.5 | 21.8 ± 2.1 | 24.0 ± 2.7 | 17.9 ± 1.8 | 16.8 ± 1.4 | 18.0 ± 1.8 | 12.5 ± 0.0 | 10.8 ± 0.6 |  |  |  |  |  | Percent Cytotoxicity (HeP-G2 (liver); 1 nM): 12.3 ± 0.4%; Percent Cytotoxicity (HeP-G2 (liver); 10 nM): 10.7 ± 0.1%; Percent Cytotoxicity (HeP-G2 (liver); 100 nM): 9.5 ± 1.0%; Percent Cytotoxicity (HeP-G2 (liver); 1 μM): 6.9 ± 0.0%; Percent Cytotoxicity ([1]; human, 1 μM): 13.9 ± 0.4% |
| CSCC[C@H](NC(=O)[C@@H](N)CC(C)C)C(=O)NCC1CCC(C(=O)N[C@H](C(=O)N[C@@H](Cc2ccc(O)cc2)C(=O)N[C@@H](CC(C)C)C(=O)N[C@@H](CCCCN)C(=O)O)[C@@H](C)O)O1 (stereo partly drawn) [SEQ ID NO: 8, Leu-Met-Saa3-Thr-Tyr-Leu-Lys] (H-LM[X1]TYLK-OH) |  |  |  |  |  |  |  |  |  |  |  |  |  |  |  | 15.3 ± 1.6 | 12.7 ± 1.6 | 10.8 ± 2.9 |  |  | Percent Cytotoxicity ([1]; MiaPaCa.2 cells, peptide 1 nM, NA = Not Active): 22.9 ± 2.2%; Percent Cytotoxicity ([1]; MiaPaCa.2 cells, peptide 10 nM, NA = Not Active): 25.5 ± 2.9%; Percent Cytotoxicity ([1]; MiaPaCa.2 cells, peptide 100 nM, NA = Not Active): 22.9 ± 2.6%; Percent Cytotoxicity ([1]; MiaPaCa.2 cells, peptide 1 μM, NA = Not Active): 19.0 ± 0.6%; Percent Cytotoxicity (PA1 (human ovary); PA1 cells, peptide 1 nM, NA = Not Active): 12.7 ± 1.9%; Percent Cytotoxicity (PA1 (human ovary); PA1 cells, peptide 10 nM, NA = Not Active): 18.0 ± 1.0%; Percent Cytotoxicity (PA1 (human ovary); PA1 cells, peptide 100 nM, NA = Not Active): 14.8 ± 1.9%; Percent Cytotoxicity (PA1 (human ovary); PA1 cells, peptide 1 μM, NA = Not Active): 9.6 ± 1.0%; Percent Cytotoxicity (ECV-304 (endothelial); peptide 1 μM): 7.9 ± 0.1% |
| CSCC[C@H](NC(=O)[C@@H](N)CC(C)C)C(=O)N[C@@H](Cc1ccc(O)cc1)C(=O)NCc1ccc(C(=O)N[C@@H](Cc2ccc(O)cc2)C(=O)N[C@@H](CC(C)C)C(=O)N[C@@H](CCCCN)C(=O)O)o1 [SEQ ID NO: 10, Leu-Met-Tyr-Saa1-Tyr-Leu-Lys] (H-LMY[2Furoyl(5-aminomethyl)]YLK-OH) | 32.0 ± 2.5 | 31.9 ± 2.9 | 29.6 ± 0.7 | 26.0 ± 1.8 | 35.4 ± 2.9 | 32.0 ± 2.1 | 31.8 ± 3.1 | 28.9 ± 2.1 | 14.9 ± 1.9 | 12.0 ± 1.7 | 9.0 ± 0.6 | 37.5 ± 3.8 | 32.0 ± 2.9 | 31.0 ± 2.7 | 28.4 ± 2.2 | 15.2 ± 1.0 | 12.9 ± 0.5 | 9.4 ± 0.2 | 30.5 ± 3.2 | 28.0 ± 2.2 | Percent Cytotoxicity (PTC (colon); 100 nM): 25.6 ± 2.2%; Percent Cytotoxicity (PTC (colon); 1 μM): 21.8 ± 2.8% |
| CSCC[C@H](NC(=O)[C@@H](N)CC(C)C)C(=O)N[C@@H](Cc1ccc(O)cc1)C(=O)NC[C@H]1CC[C@@H](C(=O)N[C@@H](Cc2ccc(O)cc2)C(=O)N[C@@H](CC(C)C)C(=O)N[C@@H](CCCCN)C(=O)O)O1 [SEQ ID NO: 13, Leu-Met-Tyr-Saa4-Tyr-Leu-Lys] (H-LMY[X2]YLK-OH) | 30.0 ± 2.8 | 27.9 ± 2.1 | 26.9 ± 2.1 | 21.4 ± 2.1 | 23.0 ± 2.1 | 21.8 ± 1.8 | 17.9 ± 1.9 | 16.4 ± 0.6 | 17.5 ± 1.9 | 14.0 ± 0.6 | 8.0 ± 0.6 | 44.0 ± 3.9 | 41.0 ± 4.2 | 38.0 ± 3.9 | 35.5 ± 2.4 | 23.0 ± 1.6 | 21.0 ± 2.6 | 18.0 ± 1.6 | 28.5 ± 2.0 | 26.0 ± 2.9 | Percent Cytotoxicity (PTC (colon); 100 nM): 22.8 ± 2.1%; Percent Cytotoxicity (PTC (colon); 1 μM): 20.8 ± 1.8%; Percent Cytotoxicity (ECV-304 (endothelial); peptide 1 μM): 12.1 ± 1.3% |
| CSCC[C@H](N)C(=O)NCc1ccc(C(=O)N[C@@H](Cc2ccc(O)cc2)C(=O)N[C@@H](CC(C)C)C(=O)O)o1 [SEQ ID NO: 14, Met-Saa1-Tyr-Leu] | 14.5 ± 0.4 | 12.9 ± 0.5 |  |  | 11.0 ± 1.9 | 10.6 ± 1.1 | 6.0 ± 0.8 |  | 17.0 ± 1.7 | 13.9 ± 1.1 | 7.0 ± 0.3 |  |  |  |  | 12.7 ± 0.4 | 13.0 ± 0.6 | 6.0 ± 0.0 | 28.9 ± 2.2 | 26.9 ± 2.9 | Percent Cytotoxicity (PTC (colon); 100 nM): 21.8 ± 1.0%; Percent Cytotoxicity (PTC (colon); 1 μM): 15.0 ± 0.5% |
| CSCC[C@H](NC(=O)[C@@H](N)CC(C)C)C(=O)NCc1ccc(C(=O)N[C@@H](Cc2ccc(O)cc2)C(=O)N[C@@H](CC(C)C)C(=O)N[C@@H](CCCCN)C(=O)O)o1 [SEQ ID NO: 18, Leu-Met-Saa1-Tyr-Leu-Lys] (H-LM[2Furoyl(5-aminomethyl)]YLK-OH) | 15.9 ± 1.0 | 12.0 ± 0.3 | 14.0 ± 1.0 | 9.3 ± 0.4 | 47.0 ± 4.8 | 38.3 ± 2.0 | 35.8 ± 2.4 | 32.9 ± 2.6 | 24.8 ± 2.0 | 21.0 ± 2.6 | 18.5 ± 0.6 | 18.3 ± 1.8 | 22.8 ± 2.9 | 21.8 ± 2.1 | 20.3 ± 2.6 | 11.0 ± 0.6 |  |  | 19.0 ± 1.6 | 28.4 ± 1.0 | Percent Cytotoxicity ([1]; human, 1 μM): 15.0 ± 0.6%; Percent Cytotoxicity (PTC (colon); 100 nM): 23.9 ± 2.9%; Percent Cytotoxicity (PTC (colon); 1 μM): 21.7 ± 1.5% |
